Laboratory results as given in ChEMBL document CHEMBL1130853, “Synthesis and biological properties of new 1 beta-methylcarbapenems” (Bioorg Med Chem Lett, 1998).
Converted amounts (≈) assume the structure as drawn.

Experiments:
[1] = Antibacterial activity against Enterobacter cloacae 1321E; format: functional
Escherichia coli [2] = experiment: microbe, parasite or virus in culture; format: functional
Description: Antibacterial activity against Escherichia coli 1507E

Pseudomonas aeruginosa [3] = experiment: microbe, parasite or virus in culture; format: functional
Description: Compound was evaluated for antibacterial activity against Pseudomonas aeruginosa 1592E

Pseudomonas aeruginosa [4] = experiment: microbe, parasite or virus in culture; format: functional; remark: listed apart in the source
Description: Antibacterial activity against Pseudomonas aeruginosa 1771M

Salmonella typhimurium = experiment: Antibacterial activity against Salmonella Typhimurium; format: functional, Salmonella enterica subsp. enterica serovar Typhimurium; settings: Salmonella enterica
Staphylococcus aureus = experiment: Antibacterial activity against Staphylococcus aureus SG 511; format: functional
Streptococcus pyogenes [5] = experiment: Antibacterial activity against Streptococcus pyogenes 77A; format: functional
Enterococcus faecium = experiment: Antibacterial activity against Streptococcus faecium MD 8b; format: functional
Klebsiella aerogenes = experiment: Antibacterial activity against Klebsiella aerogenes 1522E; format: functional
[6] = Time taken by the compound to reach maximum concentration.; format: ADME
[7] = target: T1, Dipeptidase 1 (Sus scrofa) (UniProt P22412); experiment: Compound was evaluated for relative rate of hydrolysis to imipenem by partially purified porcine renal Dehydropeptidase-1; set-up: scale not given: the % may be the effect or the level left
T1 sequence (whole entry): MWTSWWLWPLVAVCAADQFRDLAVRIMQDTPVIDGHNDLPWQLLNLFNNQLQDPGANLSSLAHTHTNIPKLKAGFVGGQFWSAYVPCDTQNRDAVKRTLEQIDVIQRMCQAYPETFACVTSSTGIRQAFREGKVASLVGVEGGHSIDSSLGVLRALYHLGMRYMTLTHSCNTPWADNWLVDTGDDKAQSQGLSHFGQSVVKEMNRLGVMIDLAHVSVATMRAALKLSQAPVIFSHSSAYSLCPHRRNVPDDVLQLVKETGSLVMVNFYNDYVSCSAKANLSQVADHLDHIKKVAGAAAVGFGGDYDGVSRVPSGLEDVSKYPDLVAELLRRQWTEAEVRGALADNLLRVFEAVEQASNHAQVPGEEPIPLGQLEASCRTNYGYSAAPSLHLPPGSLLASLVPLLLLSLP

Escherichia coli [8] = experiment: Compound was tested for in vivo protective activity against Escherichia coli 078 at a single subcutaneous administration in mice.; format: functional; settings: sc, read-out: PD50
Pseudomonas aeruginosa [9] = experiment: Compound was tested for in vivo protective activity against Pseudomonas aeruginosa 1771M at a single subcutaneous administration in mice.; format: functional; settings: sc, read-out: PD50
Streptococcus pyogenes [10] = experiment: Compound was tested for in vivo protective activity against Streptococcus pyogenes 77A at a single subcutaneous administration in mice.; format: functional; settings: sc, read-out: PD50

| SMILES | MIC [1] [µg/mL] | MIC (Escherichia coli [2]) [µg/mL] | MIC (Pseudomonas aeruginosa [3]) [µg/mL] | MIC (Pseudomonas aeruginosa [4]) [µg/mL] | MIC (Salmonella typhimurium) [µg/mL] | MIC (Staphylococcus aureus) [µg/mL] | MIC (Streptococcus pyogenes [5]) [µg/mL] | MIC (Enterococcus faecium) [µg/mL] | MIC (Klebsiella aerogenes) [µg/mL] | Tmax [6] [min] | Stability [7] [%] | ED50 (Escherichia coli [8]) [mg/kg] | ED50 (Pseudomonas aeruginosa [9]) [mg/kg] | ED50 (Streptococcus pyogenes [10]) [mg/kg] |
| --- | --- | --- | --- | --- | --- | --- | --- | --- | --- | --- | --- | --- | --- | --- |
| C[C@@H](O)[C@H]1C(=O)N2C(C(=O)O)=C(S[C@@H]3CN[C@H](C(=O)NCCS(=O)(=O)N4CCOCC4)C3)[C@H](C)[C@H]12 | 0.049 (≈ 0.092 µM) | 0.049 (≈ 0.092 µM) | 50 (≈ 93.9 µM) | 1.56 (≈ 2.93 µM) | 0.098 (≈ 0.184 µM) | 0.391 (≈ 0.734 µM) | 0.013 (≈ 0.0244 µM) | 12.5 (≈ 23.5 µM) | 0.098 (≈ 0.184 µM) |  |  |  |  |  |
| C[C@@H](O)[C@H]1C(=O)N2C(C(=O)O)=C(S[C@@H]3CN[C@H](C(=O)N(C)C)C3)[C@H](C)[C@H]12 [MEROPENEM] | 0.025 (≈ 0.0652 µM) | 0.025 (≈ 0.0652 µM) | 0.195 (≈ 0.509 µM) | 0.049 (≈ 0.128 µM) | 0.025 (≈ 0.0652 µM) | 0.098 (≈ 0.256 µM) | 0.002 (≈ 0.00522 µM) | 12.5 (≈ 32.6 µM) | 0.049 (≈ 0.128 µM) | 12.6 | 3200 | 1.24 | 1.76 | 7.16 |
| C[C@@H](O)[C@H]1C(=O)N2C(C(=O)O)=C(S[C@@H]3CN[C@H](C(=O)NCCS(=O)(=O)N(C)C)C3)[C@H](C)[C@H]12 | 0.025 (≈ 0.051 µM) | 0.025 (≈ 0.051 µM) | 1.56 (≈ 3.19 µM) | 0.195 (≈ 0.397 µM) | 0.049 (≈ 0.0999 µM) | 0.195 (≈ 0.397 µM) | 0.007 (≈ 0.0143 µM) | 12.5 (≈ 25.5 µM) | 0.049 (≈ 0.0999 µM) |  |  |  |  |  |
| CNC(=O)CCNC(=O)[C@@H]1C[C@H](SC2=C(C(=O)O)N3C(=O)[C@H]([C@@H](C)O)[C@H]3[C@H]2C)CN1 | 0.025 (≈ 0.0568 µM) | 0.025 (≈ 0.0568 µM) | 0.781 (≈ 1.77 µM) | 0.391 (≈ 0.888 µM) | 0.049 (≈ 0.111 µM) | 0.391 (≈ 0.888 µM) | 0.013 (≈ 0.0295 µM) | 12.5 (≈ 28.4 µM) | 0.049 (≈ 0.111 µM) |  |  |  |  |  |

Now from value to compound, other results behind:

| MIC [1] [µg/mL] | MIC (Escherichia coli [2]) [µg/mL] | MIC (Pseudomonas aeruginosa [3]) [µg/mL] | MIC (Pseudomonas aeruginosa [4]) [µg/mL] | MIC (Salmonella typhimurium) [µg/mL] | MIC (Staphylococcus aureus) [µg/mL] | MIC (Streptococcus pyogenes [5]) [µg/mL] | MIC (Enterococcus faecium) [µg/mL] | MIC (Klebsiella aerogenes) [µg/mL] | SMILES | Tmax [6] [min] | Stability [7] [%] | ED50 (Escherichia coli [8]) [mg/kg] | ED50 (Pseudomonas aeruginosa [9]) [mg/kg] | ED50 (Streptococcus pyogenes [10]) [mg/kg] |
| --- | --- | --- | --- | --- | --- | --- | --- | --- | --- | --- | --- | --- | --- | --- |
| 0.025 (≈ 0.048 µM) | 0.025 (≈ 0.048 µM) | 1.56 (≈ 3 µM) | 0.781 (≈ 1.5 µM) | 0.049 (≈ 0.0941 µM) | 0.391 (≈ 0.751 µM) | 0.013 (≈ 0.025 µM) | 12.5 (≈ 24 µM) | 0.049 (≈ 0.0941 µM) | C[C@@H](O)[C@H]1C(=O)N2C(C(=O)O)=C(S[C@@H]3CN[C@H](C(=O)NCCS(=O)(=O)N(C)CCO)C3)[C@H](C)[C@H]12 |  |  |  |  |  |
| 0.025 (≈ 0.052 µM) | 0.025 (≈ 0.052 µM) | 6.25 (≈ 13 µM) | 0.781 (≈ 1.63 µM) | 0.049 (≈ 0.102 µM) | 0.195 (≈ 0.406 µM) | 0.007 (≈ 0.0146 µM) | 12.5 (≈ 26 µM) | 0.049 (≈ 0.102 µM) | C[C@@H](O)[C@H]1C(=O)N2C(C(=O)O)=C(S[C@@H]3CN[C@H](C(=O)NCCC(=O)N4CCCC4)C3)[C@H](C)[C@H]12 |  |  |  |  |  |
| 0.025 (≈ 0.0531 µM) | 0.049 (≈ 0.104 µM) | 0.391 (≈ 0.831 µM) | 0.391 (≈ 0.831 µM) | 0.098 (≈ 0.208 µM) | 0.391 (≈ 0.831 µM) | 0.007 (≈ 0.0149 µM) | 12.5 (≈ 26.6 µM) | 0.098 (≈ 0.208 µM) | C[C@@H](O)[C@H]1C(=O)N2C(C(=O)O)=C(S[C@@H]3CN[C@H](C(=O)NCCC(=O)NCCO)C3)[C@H](C)[C@H]12 |  |  |  |  |  |
| 0.013 (≈ 0.0252 µM) | 0.013 (≈ 0.0252 µM) | 6.25 (≈ 12.1 µM) | 0.391 (≈ 0.757 µM) | 0.025 (≈ 0.0484 µM) | 0.098 (≈ 0.19 µM) | 0.004 (≈ 0.00774 µM) | 6.25 (≈ 12.1 µM) | 0.025 (≈ 0.0484 µM) | C[C@@H](O)[C@H]1C(=O)N2C(C(=O)O)=C(S[C@@H]3CN[C@H](C(=O)NCCS(=O)(=O)N4CCCC4)C3)[C@H](C)[C@H]12 |  |  |  |  |  |
| 0.025 (≈ 0.0497 µM) | 0.025 (≈ 0.0497 µM) | 1.56 (≈ 3.11 µM) | 0.781 (≈ 1.55 µM) | 0.049 (≈ 0.0975 µM) | 0.195 (≈ 0.388 µM) | 0.007 (≈ 0.0139 µM) | 6.25 (≈ 12.4 µM) | 0.049 (≈ 0.0975 µM) | C=CCNS(=O)(=O)CCNC(=O)[C@@H]1C[C@H](SC2=C(C(=O)O)N3C(=O)[C@H]([C@@H](C)O)[C@H]3[C@H]2C)CN1 |  |  |  |  |  |
